Reference: paper PMC10229121, “An acetylation-mediated chromatin switch governs H3K4 methylation read-write capability” (eLife, 2023)
“Also recorded” adds a separate entry of the source.

System: H3K4 methylation and H3 acetylation in MCF-7 breast cancer cells
Test: Middle-down mass spectrometry of histone H3 from MCF-7 cells ± KDAC inhibition (H3K4 methylation and H3 acetylation)
Assay type: cell-based
Settings: for 0ac state, percent of total H3 / 1ac state, percent of total H3 / 2ac state, percent of total H3 / 3ac state, percent of total H3 / 4ac state, percent of total H3 / 5ac state, percent of total H3: MCF-7, 5 mM butyrate 1H; for percent H3K4me3: sheet percentsk4me3
Experimental: MCF-7 breast cancer cells (ATCC HTB-22) were grown in MEM (Gibco) supplemented with 10% fetal bovine serum (VWR), 100 I.U. penicillin, 100 µg/mL streptomycin (Corning), 0.01 mg/mL human recombinant insulin (Gibco), and 5 µg/mL plasmocin (Invivogen) at 37 °C and 5% CO2. HEK-293 (ATCC CRL-1573) was grown in DMEM (Gibco) supplemented with 10% fetal bovine serum (Corning), 100 I.U. penicillin, and 100 µg/mL streptomycin (Gibco) at 37 °C and 5% CO2. Both cell lines were authenticated via STR profiling and confirmed to be Mycoplasma negative.
For mass spectrometric (MS) analysis ± KDAC inhibition, cells were cultured in 150 mm dishes to ~80% confluence and treated with 5 mM sodium butyrate (or equivalent volume of water) in triplicate for 0, 10, 20, 30, 60, 120 min. […] Histones were acid extracted after nuclei isolation as described ([Holt et al., 2021]). Isolated histones were resuspended in 85 µL 5% acetonitrile, 0.2% trifluoroacetic acid (TFA), and resolved by offline high-performance liquid chromatography (HPLC) as described ([Holt et al., 2021]). […] After chromatographic separation and fraction collection, histone H3.1 was selected, diluted in 100 mM ammonium acetate (pH = 4), and digested with Glu-C protease (Roche) at 10:1 protein:enzyme for 1 hr at room temperature prior to mass spectrometric analysis.
The digested samples were diluted to 2 µg/µL. Online HPLC was performed on a U3000 RSLC nano Pro-flow system using a C3 column (Zorbax 300 SB-C3, 5 µm; Agilent). Samples were maintained at 4 °C and 1 µL injected for each analysis using a microliter pickup. […] The column eluant was introduced into an Orbitrap Fusion Lumos mass spectrometer (Thermo Fisher) by nano-electrospray ionization. A static spray voltage of 1900 V and an ion transfer tube temperature of 320 °C were set for the source.
A Fusion Lumos mass spectrometer was used to generate MS data. The 9th charge state of histone H3 was targeted for analysis. MS1 analysis was acquired in the orbitrap with a normal mass range and a 60 k resolution setting in positive ion mode. An Automatic Gain Control (AGC) target of 5.0E5 with a 200 ms maximum injection time, three microscans, and a scan range of 585–640 m/z was used to identify desired ions for fragmentation. MS2 acquisition was performed in both orbitrap and ion trap modes. Both modes used electron transfer dissociation (ETD), a reaction time of 18ms, and an injection time of 200 ms. A normal scan range was used for the orbitrap mode with a resolution setting of 30 k and an AGC target of 5.0E5, with two micro scans. A narrow scan range of 470–530 m/z, targeting ions indicative of K4 modification states, was used for the ion trap mode MS2 with an ACG target of 3.0E4, quadrupole isolation, maximum injection time of 100ms, and eight microscans.
These MS methods were used with two technical replicates per biological replicate (n=3). An MS ion trap mode with a targeted mass list was used to increase sensitivity to identify known low-abundance K4me3-containing proteoforms. The ion trap MS2 spectra were averaged for each H3 acetyl state based on known retention times, and the intensities of ions indicative of the K4 methylation states were manually recorded. Retention times for each acetyl state were approximated as 0ac 35–40 min, 1ac 45–55 min, 2ac 55–60 min, 3ac 62–68 min, 4ac 69–73 min, and 5ac 74–78 min. Precursor mass was used as an additional confirmation and filter of the correct acetyl state. For scans yielding low signal and high noise (i.e. 5ac at 0 min butyrate treatment), data were manually curated before averaging. Within acetyl states, the relative proportion of fragment ions for unmodified, mono-, di-, and tri-methylation of the H3K4 ion at respective m/z of 474, 488, 502, and 516 were recorded per MS run. Values were averaged across replicates of the same conditions and normalized to one hundred percent. A two-tailed t-test was used for significance. […]

## CCCC(=O)O [sodium butyrate]
AVG n=3
  0ac state, percent of total H3: 38.12%
  1ac state, percent of total H3: 25.98%
  2ac state, percent of total H3: 20.63%
  3ac state, percent of total H3: 12.03%
  4ac state, percent of total H3: 2.14%
  5ac state, percent of total H3: 1.10%
normalized, replicate 1
  0ac state, percent of total H3: 53.59%
  1ac state, percent of total H3: 15.56%
  2ac state, percent of total H3: 13.01%
  3ac state, percent of total H3: 15.85%
  4ac state, percent of total H3: 1.53%
  5ac state, percent of total H3: 0.47%
normalized, replicate 2
  0ac state, percent of total H3: 28.79%
  1ac state, percent of total H3: 37.29%
  2ac state, percent of total H3: 21.30%
  3ac state, percent of total H3: 8.21%
  4ac state, percent of total H3: 3.37%
  5ac state, percent of total H3: 1.05%
normalized, replicate 3
  0ac state, percent of total H3: 31.98%
  1ac state, percent of total H3: 25.08%
  2ac state, percent of total H3: 27.59%
  3ac state, percent of total H3: 12.04%
  4ac state, percent of total H3: 1.54%
  5ac state, percent of total H3: 1.77%
MCF-7, 5 mM butyrate 10M, 0ac, AVG n=3
  percent H3K4me3: 1.08%
MCF-7, 5 mM butyrate 10M, 1ac, AVG n=3
  percent H3K4me3: 0.40%
MCF-7, 5 mM butyrate 10M, 2ac, AVG n=3
  percent H3K4me3: 1.95%
MCF-7, 5 mM butyrate 10M, 3ac, AVG n=3
  percent H3K4me3: 2.18%
MCF-7, 5 mM butyrate 10M, 4ac, AVG n=3
  percent H3K4me3: 1.30%
MCF-7, 5 mM butyrate 10M, 5ac, AVG n=3
  percent H3K4me3: 0.42%
MCF-7, 5 mM butyrate 30M, 0ac, AVG n=3
  percent H3K4me3: 1.93%
MCF-7, 5 mM butyrate 30M, 1ac, AVG n=3
  percent H3K4me3: 1.29%
MCF-7, 5 mM butyrate 30M, 2ac, AVG n=3
  percent H3K4me3: 1.93%
MCF-7, 5 mM butyrate 30M, 3ac, AVG n=3
  percent H3K4me3: 1.64%
MCF-7, 5 mM butyrate 30M, 4ac, AVG n=3
  percent H3K4me3: 2.14%
MCF-7, 5 mM butyrate 30M, 5ac, AVG n=3
  percent H3K4me3: 4.20%
MCF-7, 5 mM butyrate 60M, 1ac, AVG n=3
  percent H3K4me3: 1.27%
MCF-7, 5 mM butyrate 60M, 2ac, AVG n=3
  percent H3K4me3: 1.44%
MCF-7, 5 mM butyrate 60M, 3ac, AVG n=3
  percent H3K4me3: 1.39%
MCF-7, 5 mM butyrate 120M, 0ac, AVG n=3
  percent H3K4me3: 1.23%
MCF-7, 5 mM butyrate 120M, 1ac, AVG n=3
  percent H3K4me3: 1.92%
MCF-7, 5 mM butyrate 120M, 2ac, AVG n=3
  percent H3K4me3: 2.41%
MCF-7, 5 mM butyrate 120M, 3ac, AVG n=3
  percent H3K4me3: 1.99%
MCF-7, 5 mM butyrate 120M, 4ac, AVG n=3
  percent H3K4me3: 4.58%
MCF-7, 5 mM butyrate 120M, 5ac, AVG n=3
  percent H3K4me3: 21.35%
MCF-7, 5 mM sodium butyrate
  H3K4 methylation, in words: increase in all H3K4 methyl states relative to the unmodified state concomitant with increasing states of H3 acetylation; also recorded: H3K4me3 levels most dramatically increased in tandem with the 5ac H3 state; also recorded: H3K4 methylation increased for the most highly acetylated proteoforms
  H3 poly-acetylation, in words: H3 poly-acetylation rapidly increased
